US11684598B2, “Use of cannabinoids in the treatment of epilepsy” (priority 2015, dated 2023)
Like-named read-outs stand apart in the source and are kept apart here.

Legend:
[1] = system: D. discoideum development; test: D. discoideum development assay; format: cell-based, Dictyostelium discoideum
Description: Wild type (A×2) D. discoideum cells were grown in HL5 shaking culture for two days prior to development assay. Cells were washed in phosphate buffer (KK2; 20 mM Potassium phosphate buffer, pH 6.1), and 1×10^7 cells were spread onto nitrocellulose filters (Millipore, Cork). Absorbent pads (Millipore, Cork), divided into quarters, were placed in 2 ml culture dishes and soaked with 0.5 ml KK2 containing the cannabinoids at 20 μM. 1 mM Valproic acid was used as a positive control while KK2 containing 1% DMSO was used as a solvent only control. Nitrocellulose filters containing cells were quartered and place upon absorbent pads and maintained in a humid environment at 22° C. for 24 h. Fruiting body morphology was recorded using a dissection microscope and camera.

[2] = system: PTZ-induced generalised seizures; test: Acute PTZ-induced model of generalised seizure; format: in vivo, rat
Description: Adult male Wistar Kyoto rats were used in the acute PTZ model of seizure (>P24, 70-110 g). Animals were housed five per cage in a heat regulated room (21° C.) on a 12:12 h day/night cycle (lights on 0800) in 50% humidity and given ad libitum access to standard laboratory chow (PCD Mod C, Special Diet Services, Wiltham, UK) and water. All procedures were undertaken during white light hours.
(§1) A PTZ (Sigma-Aldrich, Poole, UK) stock solution was made in 0.9% w/v NaCl for the experimental procedure.
PTZ antagonises GABA inhibition via binding to the t-butyl-bicycl-phosphorothionate site of GABAA receptors. Moreover, this chemically-induced model can be indicative of effects against absence seizures. PTZ (90 mg/kg) was used to induce seizures in adult male Wistar rats (n=15 per group) with experiment dose randomised using a Latin square design. Animals were placed in their 6 L Perspex tanks and allowed to acclimatise to their environment for 10 min, before receiving one of the cannabinoid doses (see Table 5) in vehicle, or volume-matched dose of vehicle alone to serve as a negative control. 60 min after test compound or vehicle administration, animals were injected with PTZ (90 mg/kg, i.p.) to induce seizures and animal behaviour was recorded for 30 min.
Videos of PTZ-induced seizures were scored offline with a standard seizure severity scale appropriate for generalised seizures (Table 6).
Videos of seizure behaviour generated from the custom built observational system were scored offline according to seizure scales appropriate for PTZ model (Table 6) using Observer Video-Pro software (Noldus, Wageningen, The Netherlands). For the PTZ model of seizure, intra- and inter-observer agreements of behaviour scoring were assessed using the reliability analysis function of the observer Video-Pro software: 1 s tolerance window; Cohen's Kappa coefficient≥0.95.
Specific markers of seizure behaviour and development were assessed and compared between vehicle control and drug groups. The latency (s) to seizure onset and the percentage of animals that developed tonic-clonic seizures was noted (see Table 6). In addition, the maximum seizure severity and the percentage mortality in each group were determined for the acute PTZ model of generalised seizure.
The effect of drug on latency to seizure onset and maximum seizure severity were assessed using Krustal-Wallis with post-hoc Mann-Whitney U-tests. Drug effects on the percentage of animals that developed tonic-clonic seizures and percentage mortality were assessed using Chi-squared with post-hoc Fisher exact tests. In all cases, P≤0.05 was considered significant.

[3] = Formulation analysis (decarboxylation of CBDA to CBD); format: physicochemical; settings: 2:1:17 vehicle of ethanol, cremophor and saline
Source text: as §1
Formulation analysis was undertaken to determine whether CBDA decarboxylated to CBD because of temperature and/or the excipients in the formulation. […] Therefore, CBDA was not modified during formulation, and a 2:1:17 ratio can be used in future investigations for this phytocannabinoid.

[4] = system: D. discoideum cell growth; test: D. discoideum growth assay; format: cell-based, Dictyostelium discoideum
Description: Wild type (A×2) D. discoideum cells were grown in shaking culture (in HL5 medium) for two days prior to growth assays. Cells (9900 in 495 μl of media) were added to each well of a 24 well plate and 5 μl of cannabinoid in DMSO (or DMSO only) was added to each well to achieve each described concentration (1% final DMSO concentration), and cells were maintained at 22° C. Cells were counted at 72 hours, and then every 24 hours. Quadruplicate repeats were used for each concentration.

[5] = Toxicokinetics from toxicological studies in dogs, daily oral (gavage) administration; format: in vivo, dog; settings: dog, plasma, po, 100 mg/kg, Day 1, mean; for AUC0-t: read-out: AUC0-t; for Cmax: read-out: Cmax
Description: Samples were taken from the jugular vein into lithium heparin. Samples were mixed gently by hand then continuously for at least 2 minutes on automatic mixer and placed in a Kryorack until centrifugation, which was carried out at approximately 4° C. as soon as practicable. The resultant plasma was separated under low light conditions, transferred to uniquely labelled clear glass vials, placed in light proof boxes and frozen immediately at <−50° C.

[6] = system: D. discoideum growth upon R. planticola bacterial plates; test: Bacterial plate screen; format: cell-based, Dictyostelium discoideum; settings: CBDA 12.3 μM, CBD 16.7 μM; 4 days
Description: Heat killed (75° C. for 30 minutes) R. planticola was spread onto the plates and ˜50 wild-type A×2 cells were added and left to grow at 22° C. Plates were checked regularly for colonies.

[7] = female, comparative Table 11, females
[8] = male, comparative Table 10, males

CCCC(CCC)C(=O)O [valproic acid]
effect on development (fruiting body morphology) ([1]; 1 mM, positive control, 24 h): able to aggregate but unable to undergo development to form fruiting bodies

C=C(C)[C@@H]1CCC(C)=C[C@H]1c1c(O)cc(CCCCC)c(C(=O)O)c1O [CBDA, Cannabidiolic acid]
effect on percentage mortality ([2]; 100 mg/kg CBD (P≤0.01), 100 mg/kg CBDA (P=0.0656), CBD/CBDA ratio (P=0.0656)): trend towards a significant reduction | effect on latency to seizure onset ([2]; 100 mg/kg CBD (P≤0.05), CBD/CBDA 9:1 (P≤0.05), CBDA 100 mg/kg (P=0.0929)): trend towards increasing the latency to seizure onset | median score for the maximum seizure severity ([2]; 100 mg/kg, PTZ 90 mg/kg i.p. 60 min after compound, scale of Table 6, n=15): 3 | effect on incidence of tonic-clonic seizures ([2]; 100 mg/kg, P≤0.1): trend towards a reduction in tonic-clonic seizures | effect on seizure severity vs vehicle control ([2]; CBDA 100 mg/kg, CBD/CBDA 9:1 ratio (90/10 mg/kg), P≤0.05): significant anti-convulsant effects | conversion of CBDA to CBD during formulation [3]: not converted to CBD during formulation | effect on development (fruiting body morphology) ([1]; 20 μM, 24 h on nitrocellulose filter): able to aggregate and develop to form mature fruiting bodies | IC50 ([4]; Dictyostelium discoideum, 168 h, read-out: growth inhibitory constant (IC50)): 300 nM | concentration blocking growth ([4]; growth over one week): 20 µM | concentration significantly inhibiting cell growth (P<0.05) ([4]; growth over one week): 0.08 µM | AUC0-t [5, 7]: 179 µg·h/mL | Cmax [5, 7]: 38600 ng/mL | AUC0-t [5, 8]: 80.5 µg·h/mL | Cmax [5, 8]: 24900 ng/mL | cell survival (colony number) compared to control (solvent only) [6]: No difference in colony number
